Data taken from patent publication US5776935A, “Pyrido-phtalazin diones and their use against neurological disorders associated with excitotoxicity and malfunctioning of glutamatergic neurotransmission” (Merz & Co. GmbH & Co., priority 1996, dated 1998).
Structures can show the parent of a compound that is named as a salt. Where two headings read alike, the source gives them in different places.

Key:
[1] = target: T1, NMDA receptor (Mus musculus, UniProt P35438); test: Maximal electroshock (MES)-induced tonic convulsions; format: in vivo; details: for ED50: mouse, ip, 0.25 h, read-out: MES ID50; for ED50 / MES ID50: i.p., 15 min before induction
T1 construct: from tissue; host or cells: living mice (albino Swiss males for NMDA and PTZ tests, NMR females for MES)
Experimental: (§1) To assess NMDA receptor antagonistic properties of the tested agents by assessing anticonvulsive effects. Additionally the role of organic acid transporters in the elimination from the brain of tested agents was assessed by using an inhibitor, Probenicid, on the duration of anticonvulsive activity.
(§2) Male albino Swiss mice (19-21 g) housed 10-15 per cage were used for the NMDA lethality test (Leander et al., 1988). For pentylenetetrazol (PTZ)-induced convulsions male albino Swiss mice (25-34 g.) housed 40 per cage (58×38×20 cm) were used while in the maximal electroshock (MES) and motor impairment tests NMR female mice (18-28 g) housed 5 per cage were employed. All animals were kept with water and food ad libittum under a 12-h light-dark cycle (light on at 6 a.m.), and at a controlled temperature (20°±0.5° C.). All experiments were performed between 10 a.m. and 5 p.m. Tested agents were injected 15 min. i.p before the induction of convulsions if not stated otherwise (see below). Mrz 2/502 was dissolved in saline added with NaOH. Most other agents were dissolved in the following solution: 0.606 g Tris; 5.0 g. glucose; 0.5 g. Tween 80; and 95 ml water. The choline and tetramethylammonium salts were dissolved in distilled water.
MES (100 Hz, 0.5 sec shock duration, 50 mA shock intensity, 0.9 ms impulse duration, Ugo Basile) was applied through corneal electrodes. The presence of tonic convulsions was scored (tonic extension of hind paws with minimum angle to the body of 90°). In an additional experiment mice were injected with Probenicid (200 mg/kg) 30 min before administration of the tested agents to assess the role of organic acid transport in elimination (duration of action). The aim was to obtain ED50 s for all parameters scored using the Litchfield Wilcoxon (1949) test for quantal dose responses.

[2] = target: T2, NMDA receptor (Rattus norvegicus, UniProt P35439); test: Patch clamp, inward currents to NMDA in cultured superior colliculus neurones; format: cell-based; details: NMDA 200 μM, glycine 1 μM
T2 construct: endogenous in cells
Experimental: Cells were mechanically dissociated in 0.05% DNAase / 0.3% ovomucoid (Sigma) following a 15 minute pre-incubation with 0.66% trypsin / 0.1% DNAase (Sigma). The dissociated cells were then centrifuged at 18G for 10 minutes, resuspended in minimum essential medium (Gibco) and plated at a density of 200,000 cells cm onto poly-L-lysine (Sigma)-precoated plastic petri dishes (Falcon). The cells were nourished with NaHCO3 /HEPES-buffered minimum essential medium supplemented with 5% foetal calf serum and 5% horse serum (Gibco) and incubated at 37° C. with 5%CO2 at 95% humidity. The medium was exchanged completely following inhibition of further glial mitosis with cytosine-β-D-arabinofuranoside (20 μM Sigma) after about 7 days in vitro. Thereafter the medium was exchanged partially twice weekly. […] Moreover, the relatively small neurones (soma 15-20 μm .phi.) are ideally suited to minimise problems of buffered diffusion for concentration clamp experiments.
Patch clamp recordings were made from these neurones with polished glass electrodes (4-6 m.OMEGA.) in the whole cell mode at room temperature (20°-22° C.) with the aid of an EPC-7 amplifier (List). Test substances were applied by switching channels of a custom made fast superfusion system with a common outflow (10-20 ms exchange times). The contents of the intracellular solution were as follows (mM): CsCl (120), TEACl (20), EGTA (10), MgCl2 (1), CaCl2 (0.2), glucose (10), ATP (2), cAMP (0.25); pH was adjusted to 7.3 with CsOH or HCl. The extracellular solutions had the following basic composition (mM): NaCl (140), KCl (3), CaCl2 (0.2), glucose (10), HEPES (10), sucrose (4.5), tetrodotoxin (TTX 3*10-4). For most experiments glycine (1 μM) was present in all solutions. Experiments to test the glycine-dependence of the tricyclic "pyrido-phtalazin diones" were performed in the continuous presence of increasing concentrations of glycine (1-10 μM).
This effect was mediated at the glycineB site as evidenced by the parallel shift in the concentration-response curves in the presence of increasing glycine concentrations. Thus the Kbs of Mrz 2/502 as assessed according to the Cheng-Prusoff relationship were similar in glycine 1, 3 and 10 μM (80, 124 and 118 nM respectively). […] Choline derivatives had similar potencies to the free acids in vitro (Table14b).

[3] = target: T3, glycineB site of the NMDA receptor (rat cortical membranes) (Rattus norvegicus, UniProt P35439); test: [3H]5,7-DCKA binding assay; details: 10 nM [3H]5,7-DCKA
T3 construct: The cortex was dissected and homogenised in 20 volumes of ice-cold 0.32M sucrose; from tissue; host or cells: brain cortex membranes of male Sprague-Dawley rats
Experimental: Tissue preparation was performed according to Foster and Wong (1987). Male Sprague-Dawley rats (200-250g) were decapitated and their brains were removed rapidly. The cortex was dissected and homogenised in 20 volumes of ice-cold 0.32M sucrose using a glass-Teflon homogenizer. The homogenate was centrifuged at 1000×g for 10 min. The pellet was discarded and the supernatant centrifuged at 20,000×g for 20 min. The resulting pellet was resuspended in 20 volumes of distilled water and centrifuged for 20 min at 8000×g. Then the supernatant and the buffy coat were centrifuged three times (48,000× g for 20 min) in the presence of 5 mM Tris-HCl, pH 7.4. All centrifugation steps were carried out at 4° C. After resuspension in 5 volumes of 5 mM Tris-HCl, pH 7.4 the membrane suspension was frozen rapidly at -80° C. until the day of assay. On the day of assay the membranes were thawed and washed four times by resuspension in 5 mM Tris-HCl, pH 7.4 and centrifugation at 48,000× g for 20 min. The final pellet was suspended in assay buffer.
The amount of protein in the final membrane preparation was determined according to the method of Lowry (1951) with some modifications (Hartfree, 1972). 50 μl of Protein samples (in triplicates) were diluted to 1 ml with distilled water and treated with 0.9 ml of a solution containing 2 g potassium sodium tartrate and 10 g Na2 CO3 in 500 ml 1N NaOH and 500ml water. Blank and standard (with bovine serum albumin) were set up in the same way. The tubes were placed in a water bath at 50° C. for 10 min. and cooled at room temperature. 100 μl of a solution containing 2 g potassium sodium tartrate and 1 g CuSO4 x 5 H2 O in 90 ml water and 10 ml 1N NaOH were added. The samples were left at room temperature for at least 10 min., then 3 ml of Folin-Ciocalteu reagent (1 ml of reagent diluted with 15 ml water) was added rapidly during mixing. The tubes were again heated at 50° C. for 10 min. and cooled to room temperature. Absorbencies were then read in 1 cm cuvets at 650 nm. The final protein concentration used for our studies was between 100 and 250 μg/ml.
Incubation in both binding assays was terminated using a Millipore filter system. The samples, all in triplicate, were rinsed three times with 2.5 ml ice cold assay buffer over glass fibre filters obtained from Schleicher & Schuell under a constant vacuum. Following separation and rinse the filters were placed into scintillation liquid (5 ml; Ultima Gold) and radioactivity retained on the filters was determined by using conventional liquid scintillation counter (Hewlett Packard, Liquid Scintillation Analyser). `Total binding` was the absolute amount of radioligand bound in the absence of any additives whereas `non-specific` binding was determined in the presence of a high concentration of competitor.
[^3 H]5,7-DCKA binding assay
Experiments were performed according to the methods modified from previous groups (Canton et al., 1991; Yoneda et al., 1993). Membranes were suspended and incubated in 10 mM Tris-HCl, pH 7.4. Incubation time was 45 min at 4° C. Non-specific binding of [^3 H]5,7-DCKA was defined by the addition of unlabeled glycine at 0.1 mM. The stop-solution contained 10 mM Tris-HCl and 10 mM magnesium sulphate, pH 7.4. Filtration was performed as rapidly as possible. Displacement experiments were performed with a fixed [^3 H]5,7-DCKA concentration of 10 nM. Test compounds were diluted in water or DMSO and added in at least 5 different concentrations.

[4] = target: T1, NMDA receptor; test: NMDA-induced convulsions / lethality test; format: in vivo; details: ip, 0.25 h, i.p., 15 min before induction, read-out: NMDA ID50
Experimental: as §1, §2
In the NMDA-induced convulsions test in mice, a dose-response relationship for NMDA was first performed to determine the ED97 dose which was then used for testing of antagonistic properties. After injection of the ED97 dose of NMDA the animals were placed in a small cage (20×28×14 cm) and observed for 20 min. Death preceded by clonic convulsions and by tonic seizures was the pharmacological end-point.

[5] = test system: AMPA; test: Microelectrophoretic application of AMPA to spinal neurones in vivo; details: i.v., responses of single rat spinal neurones
Experimental: (§3) The ability of these glycineB antagonists to act as NMDA receptor antagonists in vivo was assessed using i.v. administration against responses of single neurones in the rat spinal cord to microelectrophoretic application of AMPA and NMDA.

[6] = target: T2, NMDA receptor; test: Microelectrophoretic application of NMDA to spinal neurones in vivo; details: responses of single rat spinal neurones; for ED50: rat, iv, read-out: Microelectrophoretic NMDA ID50; for Microelectrophoretic NMDA ID50: i.v.
Experimental: as §3

[7] = peak currents, read-out: Peak NMDA IC50
[8] = plateau (steady-state) currents, read-out: Plateau NMDA IC50

SMILES	IC50 [2, 7] [µM]	IC50 [2, 8] [µM]	IC50 [3] [µM]	further results
COc1ccc2nc3c(=O)[nH][nH]c(=O)c3cc2c1 [Mrz 2/554]	170	36.2	–	ED50 [1]: > 100 mg/kg
COc1ccc2cc3c(=O)[nH][nH]c(=O)c3nc2c1 [Mrz 2/575]	94	14.5	–	ED50 [1]: > 100 mg/kg
O=c1[nH]nc(O)c2c1cc1cc(Cl)c(Cl)cc1[n+]2[O-] [Mrz 2/518, 7,8-dichloro-4-hydroxy-1-oxo-1,2-dihydropyridazino-[4,5-b]-quinoline 5-oxide]	3.8	0.8	0.65	ED50 [1]: > 60 mg/kg; ED50 [4]: > 100 mg/kg
O=c1[nH]nc(O)c2c1cc1cc(Br)c(Cl)cc1[n+]2[O-] [Mrz 2/551, 7-chloro-8-bromo-4-hydroxy-1-oxo-1,2-dihydropyridazino-[4,5-b]-quinoline 5-oxide]	2.4	0.6	–	–
O=c1[nH][nH]c(=O)c2nc3ccc(Cl)cc3cc12 [Mrz 2/569]	2	0.5	0.97	MES ID50 ([1]; listed as 569, 15 min): > 50 mg/kg; Microelectrophoretic AMPA ID50 [5]: > 16.0 mg/kg; ED50 [6]: > 16 mg/kg
O=c1[nH]nc(O)c2c1cc1cc(Cl)ccc1[n+]2[O-] [Mrz 2/576, 8-chloro-4-hydroxy-1-oxo-1,2-dihydropyridazino[4,5-b]-quinoline 5-oxide choline salt]	1.1	0.5	0.45	MES ID50 ([1]; listed as 576, 15 min): 7.7 mg/kg; Microelectrophoretic AMPA ID50 ([5]; listed as 576): > 16.0 mg/kg; Microelectrophoretic NMDA ID50 ([6]; listed as 576): 2.8 mg/kg
O=c1[nH][nH]c(=O)c2nc3ccc(Br)cc3cc12 [Mrz 2/586]	2.2	–	–	MES ID50 ([1]; listed as 586, 15 min): > 50 mg/kg; Microelectrophoretic AMPA ID50 [5]: > 16.0 mg/kg; ED50 [6]: > 16 mg/kg
O=c1[nH][nH]c(=O)c2nc3ccc(F)cc3cc12 [Mrz 2/572]	12.4	3.5	1.14	MES ID50 ([1]; listed as 572, 15 min): > 100 mg/kg; Microelectrophoretic AMPA ID50 [5]: > 16.0 mg/kg; ED50 [6]: > 16 mg/kg
COc1ccc2c(c1)cc1c(=O)[nH]nc(O)c1[n+]2[O-] [Mrz 2/578]	101	7.7	–	ED50 [1]: > 100 mg/kg
O=c1[nH]nc(O)c2c1cc1ccccc1[n+]2[O-] [Mrz 2/577, 4-hydroxy-1-oxo-1,2-dihydro-pyridazino[4,5-b]-quinoline 5-oxide choline salt]	–	–	–	MES ID50 ([1]; listed as 577, 15 min): 23.7 mg/kg; Microelectrophoretic AMPA ID50 [5]: > 32.0 mg/kg; ED50 [6]: 34 mg/kg
O=c1[nH]nc(O)c2c1cc1cc(Cl)c(Br)cc1[n+]2[O-] [Mrz 2/568, 7-bromo-8-chloro-4-hydroxy-1-oxo-1,2-dihydropyridazino-[4,5-b]-quinoline 5-oxide]	10	1.5	–	–
O=c1[nH]nc(O)c2c1cc1cc(F)ccc1[n+]2[O-] [Mrz 2/571, 8-fluoro-4-hydroxy-1-oxo-1,2-dihydropyridazino[4,5-b]-quinoline 5-oxide choline salt]	4.9	1	0.32	MES ID50 ([1]; listed as 571, 15 min): 15.5 mg/kg; Microelectrophoretic AMPA ID50 ([5]; listed as 571): 9.2 mg/kg; Microelectrophoretic NMDA ID50 ([6]; listed as 571): 4.7 mg/kg
O=c1[nH][nH]c(=O)c2nc3cc(Cl)c(Cl)cc3cc12 [Mrz 2/574]	–	–	–	MES ID50 ([1]; listed as 574, 15 min): > 100 mg/kg
CCCN(CCC)S(=O)(=O)c1ccc(C(=O)O)cc1 [Probenecid, reference compound]	–	–	–	independent effect on MES-induced convulsions ([1]; 200 mg/kg): no independent effect
